Test results published in article PMC3898116, “FGT-1 is the major glucose transporter in C. elegans and is central to aging pathways” (Biochemical Journal, 2013).

Target: T1, hGLUT1 (Homo sapiens, UniProt P11166)
T1 construct: gene SLC2A1; untagged, expressed in Xenopus laevis oocytes from cRNA
T1 sequence (P11166 1-492): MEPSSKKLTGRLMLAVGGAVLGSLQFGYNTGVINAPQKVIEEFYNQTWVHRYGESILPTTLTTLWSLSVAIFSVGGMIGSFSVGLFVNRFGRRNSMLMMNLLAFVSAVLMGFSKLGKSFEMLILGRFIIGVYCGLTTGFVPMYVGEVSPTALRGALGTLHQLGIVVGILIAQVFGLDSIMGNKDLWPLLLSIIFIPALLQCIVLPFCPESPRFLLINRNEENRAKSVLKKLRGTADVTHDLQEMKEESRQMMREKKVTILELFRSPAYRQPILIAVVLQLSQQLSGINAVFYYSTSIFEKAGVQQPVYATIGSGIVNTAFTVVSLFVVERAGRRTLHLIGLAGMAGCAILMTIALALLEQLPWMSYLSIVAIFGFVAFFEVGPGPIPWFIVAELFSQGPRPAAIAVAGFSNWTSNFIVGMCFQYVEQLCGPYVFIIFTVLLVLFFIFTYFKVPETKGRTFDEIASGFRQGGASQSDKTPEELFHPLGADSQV
Assay: […]glucose uptake in Xenopus oocytes
Assay type: cell-based
Details: incomplete ND96 buffer, 60 min uptake; labelled compound

OC[C@H]1OC(O)[C@H](O)[C@@H](O)[C@@H]1O (stereo partly drawn) [D-glucose]
[14C]glucose uptake in Xenopus oocytes: These proteins transport glucose at levels that are comparable with GLUT1 expressed in the same system
